# According to patent US11040035B2, “3-oxo-2,6-diphenyl-2,3-dihydropyridazine-4-carboxamides” (BAYER PHARMA AKTIENGESELLSCHAFT, priority 2016, dated 2021):
# Assays:
# AHR [1] = biological target: T1, AHR (Homo sapiens, UniProt P35869); experiment: In vitro assay 2: agonism in human cell line (transactivation assay); conditions: Assay 2: AHR-luc Hum Agonism IC50 [M], no kynurenic acid, 20 hours, firefly luciferase
# T1 sequence (P35869 11-848): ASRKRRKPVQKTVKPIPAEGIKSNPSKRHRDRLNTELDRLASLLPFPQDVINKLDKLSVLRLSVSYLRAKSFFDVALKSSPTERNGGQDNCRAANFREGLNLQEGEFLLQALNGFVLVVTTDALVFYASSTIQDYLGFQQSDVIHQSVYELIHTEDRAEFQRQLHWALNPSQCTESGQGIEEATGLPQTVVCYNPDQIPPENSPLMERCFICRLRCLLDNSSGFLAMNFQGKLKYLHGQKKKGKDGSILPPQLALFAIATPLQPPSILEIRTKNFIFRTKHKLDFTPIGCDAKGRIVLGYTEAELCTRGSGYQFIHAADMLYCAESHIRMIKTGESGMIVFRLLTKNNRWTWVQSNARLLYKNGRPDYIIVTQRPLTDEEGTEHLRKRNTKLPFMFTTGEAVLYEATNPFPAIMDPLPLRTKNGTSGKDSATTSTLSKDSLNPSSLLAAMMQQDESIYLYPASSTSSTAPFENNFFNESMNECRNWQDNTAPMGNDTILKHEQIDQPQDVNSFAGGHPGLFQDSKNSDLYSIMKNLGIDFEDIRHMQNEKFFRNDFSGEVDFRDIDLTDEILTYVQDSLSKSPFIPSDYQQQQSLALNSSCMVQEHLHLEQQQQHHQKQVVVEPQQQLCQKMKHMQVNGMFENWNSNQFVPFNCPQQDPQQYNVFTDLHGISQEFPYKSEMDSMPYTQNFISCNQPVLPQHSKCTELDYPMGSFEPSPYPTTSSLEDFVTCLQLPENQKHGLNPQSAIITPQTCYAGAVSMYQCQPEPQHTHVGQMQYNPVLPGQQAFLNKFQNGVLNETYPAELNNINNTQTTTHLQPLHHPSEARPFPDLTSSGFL
# [2] = system: AHR-regulated gene CYP1A1; experiment: In vitro assay 3: AHR-regulated CYP1A1 expression in human cell line (U937, qPCR); conditions: Homo sapiens, U-937, 6 h, read-out: Assay 3: Hum CYP1A1 Antagonism IC50 [M], U937 cells, 200 μM KA, 6 hours, qPCR
# AHR [3] = biological target: T1, AHR; experiment: In vitro assay 1: antagonism in human cell line (transactivation assay, kynurenic acid prestimulated); conditions: Assay 1: AHR-luc Hum Antagonism IC50 [M], 150 μM kynurenic acid, 20 hours, firefly luciferase
SMILES,IC50 (AHR [1]) [M],IC50 [2] [M],IC50 (AHR [3]) [M]
"Cc1ccc(-c2cc(C(=O)NCC(O)C(C)C)c(=O)n(-c3cccc(F)c3)n2)cc1 (single isomer, unassigned; enantiomer 1) [Example 11, 2-(3-Fluorophenyl)-N-(2-hydroxy-3-methylbutyl)-6-(4-methylphenyl)-3-oxo-2,3-dihydropyridazine-4-carboxamide, enantiomer 1]",> 2e-05,1.71e-07,7.94e-08
"CC(C)[C@@H](CO)NC(=O)c1cc(-c2ccc(Cl)cc2)nn(-c2cccc(F)c2)c1=O [Example 20, 6-(4-Chlorophenyl)-2-(3-fluorophenyl)-N-[(2S)-1-hydroxy-3-methylbutan-2-yl]-3-oxo-2,3-dihydropyridazine-4-carboxamide]",> 2e-05,1.22e-08,1.18e-08
"O=C(NCC(O)C(F)(F)F)c1cc(-c2ccc(Cl)cc2)nn(-c2cccc(F)c2)c1=O (stereo not drawn) [Example 25, 6-(4-Chlorophenyl)-2-(3-fluorophenyl)-3-oxo-N-(3,3,3-trifluoro-2-hydroxypropyl)-2,3-dihydropyridazine-4-carboxamide]",> 2e-05,5.86e-08,3.75e-08
"CC(C)C[C@@H](CO)NC(=O)c1cc(-c2ccc(Cl)cc2)nn(-c2cccc(F)c2)c1=O [Example 37, 6-(4-Chlorophenyl)-2-(3-fluorophenyl)-N-[(2S)-1-hydroxy-4-methylpentan-2-yl]-3-oxo-2,3-dihydropyridazine-4-carboxamide]",> 2e-05,1.56e-07,1.31e-07
"CC(C)[C@@H](CO)NC(=O)c1cc(-c2ccc(Cl)cc2)nn(-c2cc(F)cc(F)c2)c1=O [Example 43, 6-(4-Chlorophenyl)-2-(3,5-difluorophenyl)-N-[(2S)-1-hydroxy-3-methylbutan-2-yl]-3-oxo-2,3-dihydropyridazine-4-carboxamide]",> 2e-05,1.08e-08,4.89e-09
"C[C@@H](CO)NC(=O)c1cc(-c2ccc(Cl)cc2)nn(-c2cc(F)cc(F)c2)c1=O [Example 47, 6-(4-Chlorophenyl)-2-(3,5-difluorophenyl)-N-[(2S)-1-hydroxypropan-2-yl]-3-oxo-2,3-dihydropyridazine-4-carboxamide]",> 2e-05,2.52e-08,3.08e-08
"Cc1ccc(-c2cc(C(=O)N[C@H](CO)C(C)C)c(=O)n(-c3cc(F)cc(F)c3)n2)cc1 [Example 51, 2-(3,5-Difluorophenyl)-N-[(2S)-1-hydroxy-3-methylbutan-2-yl]-6-(4-methylphenyl)-3-oxo-2,3-dihydropyridazine-4-carboxamide]",> 2e-05,1.15e-09,4.16e-09
"Cc1ccc(-c2cc(C(=O)N[C@@H](C)CO)c(=O)n(-c3cc(F)cc(F)c3)n2)cc1 [Example 55, 2-(3,5-Difluorophenyl)-N-[(2S)-1-hydroxypropan-2-yl]-6-(4-methylphenyl)-3-oxo-2,3-dihydropyridazine-4-carboxamide]",> 2e-05,1.54e-08,1.8e-08
"C[C@H](O)[C@H](C)NC(=O)c1cc(-c2ccc(Cl)cc2)nn(-c2cccc(F)c2)c1=O [Example 114, 6-(4-Chlorophenyl)-2-(3-fluorophenyl)-N-[(2S,3S)-3-hydroxybutan-2-yl]-3-oxo-2,3-dihydropyridazine-4-carboxamide]",> 2e-05,5.27e-08,2.3e-08
"O=C(N[C@H]1COC[C@H]1O)c1cc(-c2ccc(Cl)cc2)nn(-c2cccc(F)c2)c1=O [Example 166, 6-(4-Chlorophenyl)-2-(3-fluorophenyl)-N-[(3S,4S)-4-hydroxytetrahydrofuran-3-yl]-3-oxo-2,3-dihydropyridazine-4-carboxamide]",> 2e-05,4.47e-08,4.05e-08
"C[C@@H](CO)NC(=O)c1cc(-c2ccc(OC(F)(F)F)cc2)nn(-c2cccc(F)c2)c1=O [Example 173, 2-(3-Fluorophenyl)-N-[(2S)-1-hydroxypropan-2-yl]-3-oxo-6-[4-(trifluoromethoxy)phenyl]-2,3-dihydropyridazine-4-carboxamide]",> 2e-05,9.1e-08,3.31e-08

# Next, values leading:
IC50 (AHR [1]) [M],IC50 [2] [M],IC50 (AHR [3]) [M],SMILES
> 2e-05,9.5e-08,2.8e-08,"CC(C)(O)C(NC(=O)c1cc(-c2ccc(C(F)(F)F)cc2)nn(-c2cccc(F)c2)c1=O)C(F)(F)F (single isomer, unassigned; (-)) [Example 394, (−)-2-(3-fluorophenyl)-3-oxo-N-(1,1,1-trifluoro-3-hydroxy-3-methylbutan-2-yl)-6-[4-(trifluoromethyl)phenyl]-2,3-dihydropyridazine-4-carboxamide]"
> 2e-05,1.36e-08,1.03e-08,"Cc1ccc(-c2cc(C(=O)N[C@H](CO)C(C)C)c(=O)n(-c3cccc(F)c3)n2)cc1 [Example 2, 2-(3-Fluorophenyl)-N-[(2S)-1-hydroxy-3-methylbutan-2-yl]-6-(4-methylphenyl)-3-oxo-2,3-dihydropyridazine-4-carboxamide]"
> 2e-05,1.63e-08,1.5e-08,"O=C(NC(CO)C(F)(F)F)c1cc(-c2ccc(Cl)cc2)nn(-c2cccc(F)c2)c1=O (stereo not drawn) [Example 97, 6-(4-Chlorophenyl)-2-(3-fluorophenyl)-3-oxo-N-(1,1,1-trifluoro-3-hydroxypropan-2-yl)-2,3-dihydropyridazine-4-carboxamide]"
> 2e-05,2.91e-08,2.03e-08,"O=C(N[C@H]1CCC[C@H]1O)c1cc(-c2ccc(Cl)cc2)nn(-c2cccc(F)c2)c1=O [Example 111, 6-(4-Chlorophenyl)-2-(3-fluorophenyl)-N-[(1S,2R)-2-hydroxycyclopentyl]-3-oxo-2,3-dihydropyridazine-4-carboxamide]"
> 2e-05,1.31e-08,2.72e-08,"O=C(N[C@H]1CCC[C@@H]1O)c1cc(-c2ccc(Cl)cc2)nn(-c2cccc(F)c2)c1=O [Example 115, 6-(4-Chlorophenyl)-2-(3-fluorophenyl)-N-[(1S,2S)-2-hydroxycyclopentyl]-3-oxo-2,3-dihydropyridazine-4-carboxamide]"
> 2e-05,8.26e-08,4.69e-08,"CC(O)C(C)NC(=O)c1cc(-c2ccc(Cl)cc2)nn(-c2cccc(F)c2)c1=O (stereo not drawn) [Example 131, 6-(4-Chlorophenyl)-2-(3-fluorophenyl)-N-(3-hydroxybutan-2-yl]-3-oxo-2,3-dihydropyridazine-4-carboxamide]"
> 2e-05,2e-06,5.96e-07,"O=C(N[C@@H]1CCCC[C@H]1O)c1cc(-c2ccc(Cl)cc2)nn(-c2cccc(F)c2)c1=O [Example 164, 6-(4-Chlorophenyl)-2-(3-fluorophenyl)-N-[(1R,2R)-2-hydroxycyclohexyl]-3-oxo-2,3-dihydropyridazine-4-carboxamide]"
> 2e-05,2.03e-07,1.63e-07,"O=C(N[C@H]1COC[C@@H]1O)c1cc(-c2ccc(Cl)cc2)nn(-c2cccc(F)c2)c1=O [Example 167, 6-(4-Chlorophenyl)-2-(3-fluorophenyl)-N-[(3S,4R)-4-hydroxytetrahydrofuran-3-yl]-3-oxo-2,3-dihydropyridazine-4-carboxamide]"
> 2e-05,2.16e-08,6.92e-09,"CC(C)[C@@H](CO)NC(=O)c1cc(-c2ccc(OC(F)(F)F)cc2)nn(-c2cccc(F)c2)c1=O [Example 168, 2-(3-Fluorophenyl)-N-[(2S)-1-hydroxy-3-methylbutan-2-yl]-3-oxo-6-[4-(trifluoromethoxy)phenyl]-2,3-dihydropyridazine-4-carboxamide]"
> 2e-05,1.35e-08,1.11e-08,"O=C(NC(CO)C(F)(F)F)c1cc(-c2ccc(OC(F)(F)F)cc2)nn(-c2cccc(F)c2)c1=O (stereo not drawn) [Example 169, 2-(3-Fluorophenyl)-3-oxo-N-(1,1,1-trifluoro-3-hydroxypropan-2-yl)-6-[4-(trifluoromethoxy)phenyl]-2,3-dihydropyridazine-4-carboxamide]"
> 2e-05,2.68e-08,2.63e-08,"CC[C@@H](CO)NC(=O)c1cc(-c2ccc(OC(F)(F)F)cc2)nn(-c2cccc(F)c2)c1=O [Example 172, 2-(3-Fluorophenyl)-N-[(2S)-1-hydroxybutan-2-yl]-3-oxo-6-[4-(trifluoromethoxy)phenyl]-2,3-dihydropyridazine-4-carboxamide]"
